How the values were obtained:
Test in all cases: relative viability (nuclei count vs DMSO), 5 days (fraction); higher = more cells survive
VX-11e = compound: CC1=CN=C(N=C1C2=CNC(=C2)C(=O)N[C@H](CO)C3=CC(=CC=C3)Cl)NC4=C(C=C(C=C4)F)Cl [VX-11e]
How it was run: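 A plate was accepted only when its control CV was below 25% and the cells had doubled at least once. Viability is defined from nuclear counts as treated wells divided by vehicle wells, with the median taken across plates. That median covers lung cancer cell lines grown in 1536-well plates, dosed by pinning at five √10-spaced library-drug concentrations, and counted in MetaXpress from 4× Hoechst images after 5 days.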

VX-11e + Trametinib = compound: CC1=CN=C(N=C1C2=CNC(=C2)C(=O)N[C@H](CO)C3=CC(=CC=C3)Cl)NC4=C(C=C(C=C4)F)Cl [VX-11e] + CC(=O)Nc1cccc(-n2c(=O)n(C3CC3)c(=O)c3c(Nc4ccc(I)cc4F)n(C)c(=O)c(C)c32)c1 [Trametinib] (partner 0.02 µM)
How it was run: (§1)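 The day after seeding in 1536-well plates, lung cancer cell lines were treated by pin tool with a single drug, or with a fixed anchor-drug dose together with five library-drug doses (not always all listed) in √10 steps. After 5 days, a combined fix-and-stain solution (final 0.05% Triton X-100, 1% formaldehyde, 1 ug/ml Hoechst) was added. Nuclei counted on 4× images gave relative viability as treated counts over vehicle counts, reported as the median of duplicate plates.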

VX-11e + OSI-027 = compound: CC1=CN=C(N=C1C2=CNC(=C2)C(=O)N[C@H](CO)C3=CC(=CC=C3)Cl)NC4=C(C=C(C=C4)F)Cl [VX-11e] + COc1cccc2cc(-c3nc([C@H]4CC[C@H](C(=O)O)CC4)n4ncnc(N)c34)[nH]c12 [OSI-027] (partner 0.5 µM)
How it was run: as §1

VX-11e + Phenformin = compound: CC1=CN=C(N=C1C2=CNC(=C2)C(=O)N[C@H](CO)C3=CC(=CC=C3)Cl)NC4=C(C=C(C=C4)F)Cl [VX-11e] + N=C(N)NC(=N)NCCc1ccccc1 [Phenformin] (partner 250 µM)
How it was run: as §1

Row | Cell Line | relative viability (VX-11e; 0.04 µM) | relative viability (VX-11e; 0.1265 µM) | relative viability (VX-11e; 0.4 µM) | relative viability (VX-11e; 1.265 µM) | relative viability (VX-11e; 4 µM) | relative viability (VX-11e + Trametinib; first compound 0.04 µM) | relative viability (VX-11e + Trametinib; first compound 0.1265 µM) | relative viability (VX-11e + Trametinib; first compound 0.4 µM) | relative viability (VX-11e + Trametinib; first compound 1.265 µM) | relative viability (VX-11e + Trametinib; first compound 4 µM) | relative viability (VX-11e + OSI-027; first compound 0.04 µM) | relative viability (VX-11e + OSI-027; first compound 0.1265 µM) | relative viability (VX-11e + OSI-027; first compound 0.4 µM) | relative viability (VX-11e + OSI-027; first compound 1.265 µM) | relative viability (VX-11e + OSI-027; first compound 4 µM) | relative viability (VX-11e + Phenformin; first compound 0.04 µM) | relative viability (VX-11e + Phenformin; first compound 0.1265 µM) | relative viability (VX-11e + Phenformin; first compound 0.4 µM) | relative viability (VX-11e + Phenformin; first compound 1.265 µM) | relative viability (VX-11e + Phenformin; first compound 4 µM)
1 | 201T | 0.971 | 0.985 | 0.883 | 0.691 | 0.951 | 0.737 | 0.72 | 0.705 | 0.706 | 0.689 | 0.728 | 0.678 | 0.823 | 0.603 | 0.645 | 0.445 | 0.476 | 0.38 | 0.453 | 0.418
2 | A549 | 0.98 | 0.868 | 0.806 | 0.671 | 0.122 |  |  |  |  |  |  |  |  |  |  | 0.151 | 0.155 | 0.0307 | 0.279 | 0.0557
3 | A-427 | 0.862 | 0.854 | 0.927 | 0.933 | 0.419 | 0.73 | 0.657 | 0.708 | 0.694 | 0.379 | 0.334 | 0.19 | 0.309 | 0.215 | 0.183 | 0.343 | 0.213 | 0.263 | 0.264 | 0.158
4 | ABC-1 | 0.83 | 0.888 | 0.938 | 0.83 | 0.723 |  |  |  |  |  | 0.309 | 0.426 | 0.374 | 0.339 | 0.278 | 0.205 | 0.277 | 0.224 | 0.243 | 0.281
5 | BEN |  | 0.903 | 1.03 | 0.662 | 0.782 | 1.08 | 0.845 | 1.06 | 0.798 | 1.1 |  | 0.274 | 0.302 | 0.285 | 0.242 |  | 0.267 | 0.256 | 0.299 | 0.253
6 | CAL-12T | 0.955 | 0.942 | 0.964 | 0.715 | 0.376 | 0.235 | 0.243 | 0.285 | 0.229 | 0.228 | 0.402 | 0.523 | 0.424 | 0.312 | 0.199 | 0.677 | 0.507 | 0.504 | 0.41 | 0.194
7 | COR-L23 | 1.17 | 0.92 | 0.975 | 0.778 | 0.358 | 0.481 | 0.441 | 0.323 | 0.328 | 0.188 | 0.733 | 0.591 | 0.579 | 0.347 | 0.185 | 0.52 | 0.409 | 0.471 | 0.428 | 0.276
8 | COR-L 105 | 0.845 | 0.894 | 0.845 | 0.516 | 0.383 | 0.425 | 0.459 | 0.369 | 0.423 | 0.403 | 0.541 | 0.802 | 0.552 | 0.326 | 0.254 | 0.489 | 0.487 | 0.391 | 0.366 | 0.227
9 | ChaGo-K-1 | 0.926 | 0.903 | 0.925 | 1.03 | 0.905 | 0.928 | 0.909 | 0.842 | 0.881 | 0.869 | 0.546 | 0.533 | 0.395 | 0.527 | 0.439 | 0.435 | 0.478 | 0.382 | 0.472 | 0.407
10 | EKVX | 0.906 | 1.03 | 0.953 | 0.898 | 0.489 | 0.385 | 0.353 | 0.293 | 0.395 | 0.207 | 0.692 | 0.661 | 0.703 | 0.667 | 0.223 | 0.211 | 0.237 | 0.13 | 0.216 | 0.197
11 | EMC-BAC-2 | 0.903 | 0.875 | 1.43 | 0.998 | 0.663 | 0.937 | 0.791 | 0.518 | 0.538 | 0.402 | 0.312 | 0.387 | 0.458 | 0.421 | 0.357 | 0.518 | 0.481 | 0.633 | 0.545 | 0.51
12 | EPLC-272H | 0.787 | 0.759 | 0.556 | 0.706 | 0.419 | 0.268 | 0.299 |  | 0.225 | 0.173 | 0.257 | 0.219 |  | 0.199 | 0.165 | 0.322 | 0.22 |  | 0.32 | 0.225
13 | H3255 | 1.03 | 0.925 | 0.896 | 0.911 | 0.875 | 0.678 | 0.635 | 0.425 | 0.443 | 0.33 | 0.52 | 0.601 | 0.559 | 0.637 | 0.407 | 0.359 | 0.411 | 0.378 | 0.362 | 0.319
14 | HARA | 0.969 | 0.939 | 0.832 | 0.427 | 0.326 | 0.589 | 0.636 | 0.64 | 0.209 | 0.244 | 0.269 | 0.372 | 0.279 | 0.186 | 0.0641 | 0.453 | 0.431 | 0.414 | 0.399 | 0.314
